Here are results for 20 compounds from ChEMBL document CHEMBL3421590, “Pancreatic lipase inhibitory constituents from Morus alba leaves and optimization for extraction conditions” (Bioorg Med Chem Lett, 2015).

The target of test [1] is T1, Pancreatic triacylglycerol lipase (Sus scrofa) (UniProt P00591).
T1 sequence (whole entry): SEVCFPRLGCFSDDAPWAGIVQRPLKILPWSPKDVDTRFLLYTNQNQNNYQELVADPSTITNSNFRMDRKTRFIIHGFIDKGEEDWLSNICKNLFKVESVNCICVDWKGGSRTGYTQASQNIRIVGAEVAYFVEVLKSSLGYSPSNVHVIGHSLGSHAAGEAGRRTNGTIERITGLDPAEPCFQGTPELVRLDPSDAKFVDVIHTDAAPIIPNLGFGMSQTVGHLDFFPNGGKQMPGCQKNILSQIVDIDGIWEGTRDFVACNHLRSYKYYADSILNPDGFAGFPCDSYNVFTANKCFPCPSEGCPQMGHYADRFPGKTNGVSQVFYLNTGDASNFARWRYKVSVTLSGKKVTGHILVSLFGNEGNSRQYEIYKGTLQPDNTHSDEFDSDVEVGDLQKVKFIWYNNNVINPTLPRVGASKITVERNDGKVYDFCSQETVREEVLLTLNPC
Nature of the test: Inhibition of porcine pancreatic lipase using p-nitrophenylbutyrate as substrate assessed as formation of p-nitrophenol at 100 uM preincubated for 15 mins followed by substrate addition measured after 15 mins relative to control.

Test [2] has as its target T2, Pancreatic triacylglycerol lipase (Sus scrofa, UniProt P00591).
T2 sequence (P00591 whole entry): T1 sequence (whole entry)
Put plainly: Inhibition of porcine pancreatic lipase using p-nitrophenylbutyrate as substrate assessed as formation of p-nitrophenol preincubated for 15 mins followed by substrate addition measured after 15 mins.

For `O=c1c(O)c(-c2ccc(O)cc2)oc2cc(O)cc(O)c12` [KAEMPFEROL], the inhibition (commonly the relative decrease from the control value, in per cent) in test [1] is 50.3%. The IC50 (usually the midpoint of a concentration-inhibition curve) in test [2] is above 70 µM.

For the compound `COc1cc(-c2oc3cc(O)cc(O)c3c(=O)c2O)ccc1O` [ISORHAMNETIN], the inhibition in test [1] worked out at 32.4%. Further, the IC50 in test [2] is above 70 µM.

Regarding `Oc1cc(O)cc(-c2cc3ccc(O)c(O)c3o2)c1`, the inhibition in test [1] was 55.9%. Besides, the IC50 in test [2] is 63 µM.

For the compound `Oc1cc(O)cc(/C=C/c2ccc(O)cc2O)c1` [OXYRESVERATROL], the inhibition in test [1] amounted to 28.8%. For the same compound, the concentration for half-maximal inhibition (IC50) in test [2] is above 70 µM.

On to `CC(C)=CCC/C(C)=C/Cc1c(O)cc(O)cc1-c1cc2ccc(O)cc2o1` [ALBAFURAN A], for which the inhibition in test [1] stood at 45.4%. The IC50 in test [2] is above 70 µM.

`CC(C)=CCc1cc2cc(-c3cc(O)cc(O)c3)oc2cc1O` [MORACIN N]: the inhibition in test [1] worked out at 61.7%. Besides, the IC50 in test [2] was 29.7 µM.

In the case of `O=c1c(O[C@@H]2O[C@H](CO)[C@@H](O)[C@H](O)[C@H]2O)c(-c2ccc(O)c(O)c2)oc2cc(O)cc(O)c12` [ISOQUERCETIN], in test [1], the inhibition was 12.6%. Further, the IC50 in test [2] was above 70 µM.

With `Oc1cc(O)cc(-c2cc3cc4ccoc4cc3o2)c1`, in test [1], the inhibition amounted to 31.7%. Also, the IC50 in test [2] is above 70 µM.

Turning to `CC(C)=CCc1c(O)cc(-c2cc3ccc(O)cc3o2)cc1O` [MORACIN C], the inhibition in test [1] came out at 64.8%. Besides, the IC50 in test [2] worked out at 32 µM.

In the case of `Oc1cc(O)cc(-c2cc3cc(O)c(O)cc3o2)c1`, in test [1], the inhibition was 59.1%. Besides, the IC50 in test [2] worked out at 64.8 µM.

In the case of `CC(C)=CCc1c(-c2ccc(O)cc2O)oc2c(CC=C(C)C)c(O)cc(O)c2c1=O` [KUWANON C], the inhibition in test [1] came out at 72.5%. Moreover, in test [2], the IC50 worked out at 18.6 µM.

`Oc1cc(O)cc(-c2cc3ccc(O)cc3o2)c1` [MORACIN M]: the inhibition in test [1] amounted to 21.5%. For the same compound, the IC50 in test [2] was above 70 µM.

With `O=C1CC(c2ccc(O)cc2O)Oc2cc(O)cc(O)c21` (centres undefined) [STEPPOGENIN], in test [1], the inhibition came to 4.4%. Also, the IC50 in test [2] was above 70 µM.

For the compound `O=C1CC(c2ccc(O)cc2O)Oc2cc(O)ccc21` (centres undefined), the inhibition in test [1] is 69.6%. The IC50 in test [2] came out at 56.4 µM.

`O=c1c(O[C@@H]2O[C@H](CO)[C@@H](O)[C@H](O)[C@H]2O)c(-c2ccc(O)cc2)oc2cc(O)cc(O)c12` [ASTRAGALIN]: the inhibition in test [1] amounted to 10.8%. The IC50 in test [2] was above 70 µM.

Regarding `CC(C)=CCc1c(O)ccc(C(=O)/C=C/c2ccc(O)cc2O)c1O` [MORACHALCONE A], in test [1], the inhibition amounted to 73%. Further, the IC50 in test [2] came out at 6.2 µM.

Regarding `O=c1c(O)c(-c2ccc(O)c(O)c2)oc2cc(O)cc(O)c12`, in test [1], the inhibition was determined as 36.3%.

On to `O=c1cc(-c2ccc(O)cc2O)oc2cc(O)cc(O)c12` [NORARTOCARPETIN], for which the inhibition in test [1] came to 45.3%. Moreover, the IC50 in test [2] was above 70 µM.

Regarding `COc1ccc(-c2oc3cc(O)cc(O)c3c(=O)c2OC2O[C@H](CO)[C@@H](O)[C@H](O)[C@H]2O)cc1` (some centres undefined), the inhibition in test [1] worked out at 12.1%. For the same compound, the IC50 in test [2] is above 70 µM.

Regarding `CC1(C)C=Cc2cc3cc(-c4cc(O)cc(O)c4)oc3cc2O1`, the inhibition in test [1] is 67.9%. For the same compound, the IC50 in test [2] came to 29.2 µM.
